pIC50: −log10 of the molar value.
Tests used:
Assay type in all cases: biochemical
human Yes1 enzyme = biological target: T1, human Yes1 enzyme (Homo sapiens, UniProt P07947); assay: Yes1 enzyme inhibitory activity (time-resolved fluorometry, biotinylated peptide phosphorylation); settings: read-out: YES_IC50
T1 construct: made in house
In short: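 Inhibition was expressed against a compound-free control to give IC50, using TR-FRET read-out (Eu-cryptate anti-pTyr antibody, streptavidin-XL665).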

human Lck enzyme = biological target: T2, human Lck enzyme (Homo sapiens, UniProt P06239); assay: Lck enzyme inhibitory activity (time-resolved fluorometry, biotinylated peptide phosphorylation); settings: read-out: LCK_IC50
T2 construct: purchased Carna Biosciences, Inc. 08-170
In short: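 Readout pairs a europium cryptate-labelled anti-phosphotyrosine antibody with XL665-streptavidin, measured by time-resolved fluorescence. IC50 derived from percent inhibition against untreated controls.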

human Src enzyme = biological target: T3, human Src enzyme (Homo sapiens, UniProt P12931); assay: Src enzyme inhibitory activity (time-resolved fluorometry, biotinylated peptide phosphorylation); settings: read-out: SRC_IC50
T3 construct: purchased Carna Biosciences, Inc. 08-173
In short: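 Compounds were tested for blocking tyrosine phosphorylation of a biotinylated peptide substrate by recombinant human Src. Phosphorylated product was quantified by time-resolved fluorometry using europium cryptate and XL665 conjugates, and IC50 was calculated against the compound-free control.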

T1 sequence (P07947 whole entry): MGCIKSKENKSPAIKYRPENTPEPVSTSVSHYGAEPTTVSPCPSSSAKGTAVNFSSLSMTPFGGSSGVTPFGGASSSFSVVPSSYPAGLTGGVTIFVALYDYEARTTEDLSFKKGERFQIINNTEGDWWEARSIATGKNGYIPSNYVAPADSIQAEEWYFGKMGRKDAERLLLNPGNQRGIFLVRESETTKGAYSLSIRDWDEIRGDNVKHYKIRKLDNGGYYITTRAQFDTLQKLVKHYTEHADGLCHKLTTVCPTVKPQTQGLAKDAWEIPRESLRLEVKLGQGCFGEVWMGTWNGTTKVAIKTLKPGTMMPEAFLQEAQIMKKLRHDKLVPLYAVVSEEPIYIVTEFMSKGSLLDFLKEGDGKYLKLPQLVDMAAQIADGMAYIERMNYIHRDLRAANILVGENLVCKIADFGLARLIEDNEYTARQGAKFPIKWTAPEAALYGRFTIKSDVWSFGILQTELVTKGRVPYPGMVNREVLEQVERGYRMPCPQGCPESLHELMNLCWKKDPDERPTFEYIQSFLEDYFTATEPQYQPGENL
T2 sequence (P06239 whole entry): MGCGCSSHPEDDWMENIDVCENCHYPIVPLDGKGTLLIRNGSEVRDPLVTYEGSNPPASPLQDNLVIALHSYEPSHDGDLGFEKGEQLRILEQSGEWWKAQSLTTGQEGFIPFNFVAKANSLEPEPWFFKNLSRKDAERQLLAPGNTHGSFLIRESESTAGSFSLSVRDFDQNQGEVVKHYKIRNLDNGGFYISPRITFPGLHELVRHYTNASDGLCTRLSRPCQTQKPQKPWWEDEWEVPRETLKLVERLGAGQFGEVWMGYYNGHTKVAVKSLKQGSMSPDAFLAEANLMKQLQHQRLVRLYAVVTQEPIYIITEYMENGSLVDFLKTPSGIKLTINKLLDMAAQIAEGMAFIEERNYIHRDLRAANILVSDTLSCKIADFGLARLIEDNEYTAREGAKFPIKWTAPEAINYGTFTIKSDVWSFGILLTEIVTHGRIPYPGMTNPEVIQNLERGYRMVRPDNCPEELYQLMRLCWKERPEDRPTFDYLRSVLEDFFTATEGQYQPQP
T3 sequence (P12931 whole entry): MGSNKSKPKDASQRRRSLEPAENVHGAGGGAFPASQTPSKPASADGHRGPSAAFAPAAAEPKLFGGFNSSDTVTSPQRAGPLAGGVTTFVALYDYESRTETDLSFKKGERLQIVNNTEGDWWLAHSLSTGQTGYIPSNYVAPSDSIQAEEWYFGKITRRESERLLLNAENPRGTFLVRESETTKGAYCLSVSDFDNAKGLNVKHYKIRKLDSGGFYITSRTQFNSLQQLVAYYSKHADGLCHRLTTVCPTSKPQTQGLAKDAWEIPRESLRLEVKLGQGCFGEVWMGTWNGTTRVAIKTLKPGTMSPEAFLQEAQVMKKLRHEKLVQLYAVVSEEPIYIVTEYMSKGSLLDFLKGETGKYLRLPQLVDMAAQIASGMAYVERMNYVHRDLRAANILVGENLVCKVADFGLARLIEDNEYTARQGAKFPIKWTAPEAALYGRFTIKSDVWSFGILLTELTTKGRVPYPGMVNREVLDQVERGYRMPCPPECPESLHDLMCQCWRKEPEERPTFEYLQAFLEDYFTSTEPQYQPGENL

pIC50 (human Yes1 enzyme) | pIC50 (human Lck enzyme) | pIC50 (human Src enzyme) | SMILES
8.70 | 8.33 | 7.59 | CC(C)N1CCC(c2cc3cc(C(=O)c4cnn(-c5ccc(Oc6cccc(Cl)c6)cc5F)c4N)[nH]c3cc2F)CC1 [Example 5-1-003, [5-amino-1-[4-(3-chlorophenoxy)-2-fluorophenyl]pyrazol-4-yl]-[6-fluoro-5-(1-propan-2-ylpiperidin-4-yl)-1H-indol-2-yl]methanone]
9.11 | 8.55 | 8.44 | CC(C)N1CCC(c2cc3cc(C(=O)c4cnn(-c5ccc(Oc6ccccc6F)cc5)c4N)[nH]c3cc2F)CC1 [Example 5-1-004, [5-amino-1-[4-(2-fluorophenoxy)phenyl]pyrazol-4-yl]-[6-fluoro-5-(1-propan-2-ylpiperidin-4-yl)-1H-indol-2-yl]methanone]
9.15 | 8.38 | 7.43 | Cc1cc(Oc2cccc(F)c2)ccc1-n1ncc(C(=O)c2cc3cc(C4CCN(C(C)C)CC4)c(F)cc3[nH]2)c1N [Example 5-1-005, [5-amino-1-[4-(3-fluorophenoxy)-2-methylphenyl]pyrazol-4-yl]-[6-fluoro-5-(1-propan-2-ylpiperidin-4-yl)-1H-indol-2-yl] methanone]
9.14 | 8.22 | 7.25 | CC(C)N1CCC(c2cc3[nH]c(C(=O)c4cnn(-c5ccc(Oc6cccc(F)c6)cc5F)c4N)cc3cc2F)CC1 [Example 5-1-006, [5-amino-1-[2-fluoro-4-(3-fluorophenoxy)phenyl]pyrazol-4-yl]-[5-fluoro-6-(1-propan-2-ylpiperidin-4-yl)-1H-indol-2-yl]methanone]
8.96 | 8.66 | 7.96 | CC(C)N1CCC(c2cc3[nH]c(C(=O)c4cnn(-c5ccc(Oc6ccccc6F)cc5)c4N)cc3cc2F)CC1 [Example 5-1-007, [5-amino-1-[4-(2-fluorophenoxy)phenyl]pyrazol-4-yl]-[5-fluoro-6-(1-propan-2-ylpiperidin-4-yl)-1H-indol-2-yl]methanone]
8.57 | 8.34 | 7.22 | CC(C)N1CCC(c2cc3[nH]c(C(=O)c4cnn(-c5ccc(Oc6cccc(Cl)c6)cc5)c4N)cc3cc2F)CC1 [Example 5-1-008, [5-amino-1-[4-(3-chlorophenoxy)phenyl]pyrazol-4-yl]-[5-fluoro-6-(1-propan-2-ylpiperidin-4-yl)-1H-indol-2-yl]methanone]
8.72 | 8.55 | 8.03 | Cc1cc(Oc2cccc(F)c2)ccc1-n1ncc(C(=O)c2cc3cc(F)c(C4CCN(C(C)C)CC4)cc3[nH]2)c1N [Example 5-1-009, [5-amino-1-[4-(3-fluorophenoxy)-2-methylphenyl]pyrazol-4-yl]-[5-fluoro-6-(1-propan-2-ylpiperidin-4-yl)-1H-indol-2-yl] methanone]
8.60 | 8.44 | 7.42 | CC(C)N1CCC(c2cc3[nH]c(C(=O)c4cnn(-c5ccc(Oc6cccc(Cl)c6)cc5F)c4N)cc3cc2F)CC1 [Example 5-1-010, [5-amino-1-[4-(3-chlorophenoxy)-2-fluorophenyl]pyrazol-4-yl]-[5-fluoro-6-(1-propan-2-ylpiperidin-4-yl)-1H-indol-2-yl]methanone]
9.07 | 8.59 | 7.85 | CC(C)N1CCC(c2cc3[nH]c(C(=O)c4cnn(-c5ccc(Oc6cccc(F)c6F)cc5F)c4N)cc3cc2F)CC1 [Example 5-1-011, [5-amino-1-[4-(2,3-difluorophenoxy)-2-fluorophenyl]pyrazol-4-yl]-[5-fluoro-6-(1-propan-2-ylpiperidin-4-yl)-1H-indol-2-yl]methanone]
8.60 | 7.64 | 6.51 | Cc1cc(-n2ncc(C(=O)c3cc4cc(C)c(C5CCN(C(C)C)CC5)cc4[nH]3)c2N)ccc1Oc1ccccc1F [Example 5-1-012, [5-amino-1-[4-(2-fluorophenoxy)-3-methylphenyl]pyrazol-4-yl]-[5-methyl-6-(1-propan-2-ylpiperidin-4-yl)-1H-indd-2-yl] methanone]
8.80 | 8.60 | 7.52 | CC(C)N1CCC(c2cc3[nH]c(C(=O)c4cnn(-c5ccc(Oc6cccc(F)c6F)cc5)c4N)cc3cc2F)CC1 [Example 5-1-013, [5-amino-1-[4-(2,3-difluorophenoxy)phenyl]pyrazol-4-yl]-[5-fluoro-6-(1-propan-2-ylpiperidin-4-yl)-1H-indol-2-yl]methanone]
8.62 | 8.52 | 7.37 | CC(C)N1CCC(c2cc3[nH]c(C(=O)c4cnn(-c5ccc(Oc6cccc(F)c6)cc5)c4N)cc3cc2F)CC1 [Example 5-1-014, [5-amino-1-[4-(3-fluorophenoxy)phenyl]pyrazol-4-yl]-[5-fluoro-6-(1-propan-2-ylpiperidin-4-yl)-1H-indol-2-yl]methanone]
8.82 | 8.66 | 7.64 | CC(C)N1CCC(c2cc3[nH]c(C(=O)c4cnn(-c5ccc(Oc6ccccc6Cl)cc5)c4N)cc3cc2F)CC1 [Example 5-1-015, [5-amino-1-[4-(2-chlorophenoxy)phenyl]pyrazol-4-yl]-[5-fluoro-6-(1-propan-2-ylpiperidin-4-yl)-1H-indol-2-yl]methanone]
9.14 | 7.60 | 7.03 | CS(=O)(=O)Nc1cc2[nH]c(C(=O)c3cnn(-c4ccc(Oc5cccc(F)c5F)cc4Cl)c3N)cc2cc1F [Example 5-1-016, N-[2-[5-amino-1-[2-chloro-4-(2,3-difluorophenoxy)phenyl]pyrazole-4-carbonyl]-5-fluoro-1H-indol-6-yl]methanesulfonamide]
8.35 | 6.20 | 5.62 | Cc1cc(-n2ncc(C(=O)c3cc4cc(F)c(NS(C)(=O)=O)cc4[nH]3)c2N)ccc1Oc1ccccc1F [Example 5-1-017, N-[2-[5-amino-1-[4-(2-fluorophenoxy)-3-methylphenyl]pyrazole-4-carbonyl]-5-fluoro-1H-indol-6-yl]methanesulfonamide]
8.66 | 7.48 | 6.96 | CS(=O)(=O)Nc1cc2[nH]c(C(=O)c3cnn(-c4ccc(Oc5ccccc5F)cc4Cl)c3N)cc2cc1F [Example 5-1-018, N-[2-[5-amino-1-[2-chloro-4-(2-fluorophenoxy)phenyl]pyrazole-4-carbonyl]-5-fluoro-1H-indol-6-yl]methanesulfonamide]
8.55 | 7.27 | 6.92 | Nc1c(C(=O)c2cc3cc(F)c(NS(=O)(=O)C4CC4)cc3[nH]2)cnn1-c1c(F)cc(Oc2ccccc2F)cc1F [Example 5-1-019, N-[2-[5-amino-1-[2,6-difluoro-4-(2-fluorophenoxy)phenyl]pyrazole-4-carbonyl]-5-fluoro-1H-indol-6-yl] cyclopropanesulfonamide]
8.24 | 7.29 | 6.72 | Cc1cc(Oc2ccccc2F)ncc1-n1ncc(C(=O)c2cc3cc(F)c(NS(=O)(=O)NC4CC4)cc3[nH]2)c1N [Example 5-1-020, [5-amino-1-[6-(2-fluorophenoxy)-4-methylpyridin-3-yl]pyrazol-4-yl]-[6-(cyclopropylsulfamoylamino)-5-fluoro-1H-indol-2-yl]methanone]
8.01 | 7.14 | 6.51 | Cc1cc(Oc2ccccc2F)ncc1-n1ncc(C(=O)c2cc3cc(F)c(NS(=O)(=O)NC(C)C)cc3[nH]2)c1N [Example 5-1-021, [5-amino-1-[6-(2-fluorophenoxy)-4-methylpyridin-3-yl]pyrazol-4-yl]-[5-fluoro-6-(propan-2-ylsulfamoylamino)-1H-indol-2-yl] methanone]
8.70 | 8.00 | 7.21 | CS(=O)(=O)Nc1cc2[nH]c(C(=O)c3cnn(-c4c(F)cc(Oc5ccccc5F)cc4F)c3N)cc2cc1F [Example 5-1-022, N-[2-[5-amino-1-[2,6-difluoro-4-(2-fluorophenoxy)phenyl]pyrazole-4-carbonyl]-5-fluoro-1H-indol-6-yl]methanesulfonamide]
7.80 | 7.19 | 6.62 | CS(=O)(=O)Nc1cc2[nH]c(C(=O)c3cnn(-c4c(Cl)cc(Oc5ccccc5F)cc4Cl)c3N)cc2cc1F [Example 5-1-023, N-[2-[5-amino-1-[2,6-dichloro-4-(2-fluorophenoxy)phenyl]pyrazole-4-carbonyl]-5-fluoro-1H-indol-6-yl]methanesulfonamide]
7.59 | 7.08 | 6.47 | CS(=O)(=O)Nc1cc2[nH]c(C(=O)c3cnn(-c4c(Cl)cc(Oc5cccc(F)c5F)cc4Cl)c3N)cc2cc1F [Example 5-1-024, N-[2-[5-amino-1-[2,6-dichloro-4-(2,3-difluorophenoxy)phenyl]pyrazole-4-carbonyl]-5-fluoro-1H-indol-6-yl]methanesulfonamide]
7.70 | 6.57 | 6.14 | Nc1c(C(=O)c2cc3cc(F)c(NS(=O)(=O)C4CC4)cc3[nH]2)cnn1-c1c(Cl)cc(Oc2ccccc2F)cc1Cl [Example 5-1-025, N-[2-[5-amino-1-[2,6-dichloro-4-(2-fluorophenoxy)phenyl]pyrazole-4-carbonyl]-5-fluoro-1H-indol-6-yl]cyclopropanesulfonamide]
7.19 | 6.41 | 6.18 | Nc1c(C(=O)c2cc3cc(F)c(NS(=O)(=O)C4CC4)cc3[nH]2)cnn1-c1c(Cl)cc(Oc2cccc(F)c2F)cc1Cl [Example 5-1-026, N-[2-[5-amino-1-[2,6-dichloro-4-(2,3-difluorophenoxy)phenyl]pyrazole-4-carbonyl]-5-fluoro-1H-indol-6-yl] cyclopropanesulfonamide]
